Data: patent US11014934B2, “Antiseptic drug” (AO “TATKHIMFARMPREPARATY”, priority 2017, dated 2021)

Columns and labels:
[1] = tested on: Bovine rhinotracheitis virus (herpes virus family), vaccine strain TK-A (VIEV)-V2; assay: Antiviral (virulicidal) activity, cytopathogenic effect on LCE cells; type: cell-based, IBR virus; conditions: for destruction of the monolayer, drug with the virus: virus incubated with drug one hour, LCE cells 72 hours; for concentration with virulicidal effect: herpes virus type 1, infectious titer 6.0 Ig TCD50/ml
Procedure: The study of the antiviral activity of compound I in vitro was carried out in accordance with [D. L. Kuznetsov, A. YA. Samuylenko, V. I. Belousov Immunofermentnaya diagnostika IRT KRS. Veterinariya.—2002.—No 3.—S. 22-25. D. L. Kuznetsov, A. Y. ? Samuylenko, V. I. Belousov Enzyme-linked immunosorbent assay for cattle IBR. Veterinary medicine.—2002.—No 3.—P. 22-25].
Cells of a light cow embryo (LCE) are obtained from the Federal State Budgetary Institution “All-Russian Institute of Experimental Veterinary Medicine”, Moscow. Bovine rhinotracheitis virus (herpes virus family), vaccine strain “TK-A (VIEV)-V2” was obtained from the Federal State Budgetary Institution “All-Russian Institute of Experimental Veterinary Medicine”, Moscow.
Evaluation of the antiviral activity of compound I was carried out in an appropriate medium on LCE cells that were infected with the IBR virus belonging to the type 1 herpes virus family.
The virus was incubated in the presence of compound I in a culture medium at 37° C. for one hour at various concentrations; miramistin and benzalkonium chloride served as control preparations. After incubation of the virus with substances, it was added to the cell culture, which was then incubated at 37° C., 5% CO2 for 72 hours.
Evaluation of the cytopathogenic effect was carried out visually by the state of the cell monolayer as compared with the controls (virus without incubation with the drug, the studied drug concentrations without the virus). The virus titer was calculated using the method of Reed-Muench in the modification of Ashmarin and expressed in Ig TCD50/ml.

[2] = tested on: Staphylococcus aureus ATCC 209p; assay: Disinfectant activity in suspension test; type: cell-based
Procedure: (§1) To prepare a bacterial suspension of the culture, microorganisms grown in dense nutrient medium for (18-24) hours were washed off with a sterile isotonic sodium chloride solution. The bacterial suspension of each microorganism was brought to a turbidity corresponding to a concentration of 1×10^9 cells/ml, which corresponds to 3 units of McFarland. For experiments with protein loading, a solution of bovine serum albumin (BSA) was added to the bacterial suspension to a final concentration of 0.2%.
(§2) Solutions of compound I, miramistin, and benzalkonium chloride were poured at a working concentration (0.1%, 0.2%) into a 24-well plate of 0.9 ml per well: 0.1 ml of microbial suspension was added to wells with disinfectant solutions and mixed by shaking for several seconds.
(§3) At the end of 1, 5, and 15 minutes of exposure, 0.5 ml of a universal neutralizer was added and mixed by shaking to deactivate the drugs and stop their antimicrobial activity. The neutralizer consisted of tween-80 (Sigma-Aldrich)—3.0 ml, saponin (DIAEM)—3.0 g, histidine—0.1 g, cysteine—0.1 g in 100 ml of phosphate-buffered solution.
(§4) The liquid was inoculated on a dense nutrient medium (Müller-Hinton agar) in 0.1 ml of the mixture, cultivation was carried out (24-48) hours at 37° C. Müller-Hinton broth was prepared from dry media (Mueller Hinton broth, Acumedia, Baltimore), cultivation was carried out on agarized Müller-Hinton broth, which included an additional 2% of agar. The media were autoclaved at 121° C. for 15 minutes.
(§5) After the time required for the cultivation of microorganisms, the results were counted according to the number of colonies grown on the Petri dish. In the absence of growth, the time for culturing microorganisms was increased by a factor of 2 (for example, when the cultivation time was 24 hours, it was left in the thermostat for up to 2 days). The experiment was carried out three times under the same conditions.
(§6) The criterion of efficacy of drugs in suspension is the death of 100% test microorganisms, with a duration of action not more than 30 minutes.

[3] = tested on: Escherichia coli CDC F-50; assay: Disinfectant activity in suspension test; type: cell-based
Procedure: as §1, §2, §3, §4, §5, §6

[4] = 0.1% solution, exposure 1 min, +BSA
[5] = 0.1% solution, exposure 1 min, −BSA
[6] = 0.1% solution, exposure 5 min, +BSA
[7] = 0.1% solution, exposure 5 min, −BSA
[8] = 0.1% solution, exposure 15 min, +BSA
[9] = 0.1% solution, exposure 15 min, −BSA
[10] = 0.2% solution, exposure 1 min, +BSA
[11] = 0.2% solution, exposure 1 min, −BSA
[12] = 0.2% solution, exposure 5 min, +BSA
[13] = 0.2% solution, exposure 5 min, −BSA
[14] = 0.2% solution, exposure 15 min, +BSA
[15] = 0.2% solution, exposure 15 min, −BSA

Row | Molecule | destruction of the monolayer, drug with the virus ([1]; 150 μg/ml) | destruction of the monolayer, drug with the virus ([1]; 200 μg/ml) | Inhibition rate (M ± SD) Staphylococcus aureus ATCC 209p [2, 4] | Inhibition rate (M ± SD) Staphylococcus aureus ATCC 209p [2, 5] | Inhibition rate (M ± SD) Staphylococcus aureus ATCC 209p [2, 6] | Inhibition rate (M ± SD) Staphylococcus aureus ATCC 209p [2, 7] | Inhibition rate (M ± SD) Staphylococcus aureus ATCC 209p [2, 8] | Inhibition rate (M ± SD) Staphylococcus aureus ATCC 209p [2, 9] | Inhibition rate (M ± SD) Staphylococcus aureus ATCC 209p [2, 10] | Inhibition rate (M ± SD) Staphylococcus aureus ATCC 209p [2, 11] | Inhibition rate (M ± SD) Staphylococcus aureus ATCC 209p [2, 12] | Inhibition rate (M ± SD) Staphylococcus aureus ATCC 209p [2, 13] | Inhibition rate (M ± SD) Staphylococcus aureus ATCC 209p [2, 15] | Inhibition rate (M ± SD) of Escherichia coli CDC F-50 growth [3, 4] | Inhibition rate (M ± SD) of Escherichia coli CDC F-50 growth [3, 5] | Inhibition rate (M ± SD) of Escherichia coli CDC F-50 growth [3, 6] | Inhibition rate (M ± SD) of Escherichia coli CDC F-50 growth [3, 7] | Inhibition rate (M ± SD) of Escherichia coli CDC F-50 growth [3, 8] | Inhibition rate (M ± SD) of Escherichia coli CDC F-50 growth [3, 9] | Inhibition rate (M ± SD) of Escherichia coli CDC F-50 growth [3, 10] | also measured
1 | CCCCCCCCCCCC[N+](C)(C)Cc1cnc(C[N+](C)(C)CCCCCCCCCCCC)c2c1COC(CC)O2 (centres unmarked) [Compound I, 5,8-(Bis(methylene (N, N-dimethyl-N-dodecylammonium))-2-ethyl-4H-[1,3]dioxino [4,5-c]pyridiniumdichloride] | ++ (++ - −40-70% destruction of the monolayer) | − (−0-10% destruction of the monolayer) | 99.99% | 99.99% | 99.99% | 99.99% | 99.99 ± 0.005% | 99.99 ± 0.005% | 99.99 ± 0.005% | 100% | 99.99 ± 0.005% | 100% | 100% | 99.99 ± 0.005% | 99.99% | 99.99 ± 0.005% | 99.99 ± 0.005% | 100% | 100% | 99.99 ± 0.005% | concentration with virulicidal effect [1]: 200 µg/mL; death of Staphylococcus aureus ATCC 209p ([2]; 0.1% solution): 99.99%; Inhibition rate (M ± SD) Staphylococcus aureus ATCC 209p [2, 14]: 100%; Inhibition rate (M ± SD) of Escherichia coli CDC F-50 growth [3, 11]: 99.99%; Inhibition rate (M ± SD) of Escherichia coli CDC F-50 growth [3, 12]: 99.99%; Inhibition rate (M ± SD) of Escherichia coli CDC F-50 growth [3, 13]: 99.99%; Inhibition rate (M ± SD) of Escherichia coli CDC F-50 growth [3, 14]: 100%; Inhibition rate (M ± SD) of Escherichia coli CDC F-50 growth [3, 15]: 100%
2 | CCCCCCCCCCCCCC(=O)NCCC[N+](C)(C)Cc1ccccc1.O.[Cl-] [Miramistin, benzyldimethyl [3-(myristoylamino)propyl]-ammonium chloride monohydrate] | − (−0-10% destruction of the monolayer) | − (−0-10% destruction of the monolayer) | 99.99% | 99.9% | 99.99% | 99.99% | 99.99 ± 0.005% | 99.99% | 99.99% | 99.9% | 99.99 ± 0.005% | 99.99% | 100% | 99.98 ± 0.005% | 99.99% | 99.99% | 99.99 ± 0.005% | 99.99 ± 0.005% | 100% | 99.99% | destruction of the monolayer, drug with the virus ([1]; 100 μg/ml): +++ (+++ - 90-100% destruction of the monolayer); concentration with virulicidal effect [1]: 150 µg/mL; Inhibition rate (M ± SD) Staphylococcus aureus ATCC 209p ([2]; 0.2% solution, exposure 15 min, +BSA, listed as miramistin, monohydrate): < 100%; Inhibition rate (M ± SD) Staphylococcus aureus ATCC 209p ([2]; 0.2% solution, exposure 15 min, +BSA, monohydrate): 99.99 ± 0.005%; Inhibition rate (M ± SD) of Escherichia coli CDC F-50 growth [3, 11]: 99.99%; Inhibition rate (M ± SD) of Escherichia coli CDC F-50 growth [3, 12]: 99.99%; Inhibition rate (M ± SD) of Escherichia coli CDC F-50 growth [3, 13]: 99.99 ± 0.005%; Inhibition rate (M ± SD) of Escherichia coli CDC F-50 growth [3, 14]: 100%; Inhibition rate (M ± SD) of Escherichia coli CDC F-50 growth [3, 15]: 100%
3 | alkyldimethyl(phenylmethyl) ammonium chloride [Benzalconium chloride] | ++ (++ - −40-70% destruction of the monolayer) | − (−0-10% destruction of the monolayer) | 99.99% | 99.99% | 99.99% | 99.99% | 99.99 ± 0.005% | 99.99 ± 0.005% | 100% | 100% | 100% | 100% | 100% | 99.99 ± 0.005% | 99.99% | 99.99 ± 0.005% | 99.99 ± 0.005% | 100% | 100% | 99.99 ± 0.005% | Inhibition rate (M ± SD) Staphylococcus aureus ATCC 209p [2, 14]: 100%; Inhibition rate (M ± SD) of Escherichia coli CDC F-50 growth [3, 11]: 99.99 ± 0.005%; Inhibition rate (M ± SD) of Escherichia coli CDC F-50 growth [3, 12]: 100%; Inhibition rate (M ± SD) of Escherichia coli CDC F-50 growth [3, 13]: 99.99 ± 0.005%; Inhibition rate (M ± SD) of Escherichia coli CDC F-50 growth [3, 14]: 100%; Inhibition rate (M ± SD) of Escherichia coli CDC F-50 growth [3, 15]: 100%
